Tests used:
[1] = tested on: myocardial ischemia/reperfusion injury mouse models; test: Myocardial ischemia/reperfusion injury mouse model (LAD ligation 1 h, reperfusion 24 h); type: in vivo, C57BL/6J mice; details: telaprevir 60 mg/kg after 30 minutes of ischemia, 24 h reperfusion
Experimental: Experimental animals: 7-week-old male C57BL/6J mice. The experimental animals were raised for one week in an environment with a temperature of 25° C., a relative humidity of 60%, free drinking water, and timed and quantified feeding, and then administered according to the requirements of each experimental group.
Method for building a myocardial ischemia/reperfusion mouse model: After an 8-week-old male C57BL/6J mouse was anesthetized by intraperitoneal injection with 0.3% pentobarbital sodium (20 mL/kg), a trachea cannula was inserted from the mouth and secured with a pressure-sensitive adhesive. […] The chest was opened, left anterior descending (LAD) branches were ligated with 8-0 sutures, myocardial infarction can be determined when the cardiac apex turned white, and the ligation was maintained for 1 hour. […] After staining, the staining solution was removed, the heart slices were washed with PBS once, immobilized with 4% paraformaldehyde for 24 hours, and then taken out, the staining situation was observed, photos were taken, and an ischemic area and an infarct area were measured by ImageJ software. […]
Blood and myocardial tissues were collected and relevant indicators were measured: myocardial infarct area in mice was measured and serum creatine kinase activity (CK activity) was detected. […]

SH-SY5Y nerve cells = test: Hypoxia/reoxygenation injury of SH-SY5Y nerve cells, MTS viability and LDH release; type: cell-based; details: hypoxia 8 h / reoxygenation 24 h, telaprevir 1, 5, 10 μM, vs Hypoxia
Experimental: The measurement followed the operating instructions of a commercially available lactate dehydrogenase kit (Shanghai Beyotime Biotechnology Co., Ltd., China). Groups were designed according to experimental requirements, and a background blank control group (without cells) and a maximum enzyme release group were additionally set. An LDH release reagent in a volume of 1/10 of the original medium was added to the maximum enzyme activity well group of the sample, and the culture continued for 1 hour. 120 μL of supernatant was pipetted from each well and added to a new 96-well plate, and 60 μL of LDH detection working solution was added to each well, followed by uniform mixing and incubation at room temperature for 30 minutes (in dark). The absorbance of the sample was measured at 490 nm. Calculation: LDH release rate of cells (%)=(absorbance of the drug treatment group-absorbance of the control group)/(absorbance of the maximum enzyme release group-absorbance of the control group)×100%. When the absorbance value of each group was calculated, the absorbance value of the background blank control group was first subtracted.
SH-SY5Y nerve cells were purchased from the Xiangya Cell Bank of Central South University. […]
Cell viability was detected by MTS and cell injury was detected by an LDH release rate. […]

Compound: CCC[C@H](NC(=O)[C@@H]1[C@H]2CCC[C@H]2CN1C(=O)[C@@H](NC(=O)[C@@H](NC(=O)c1cnccn1)C1CCCCC1)C(C)(C)C)C(=O)C(=O)NC1CC1 [telaprevir]
- serum creatine kinase activity ([1]; ##P<0.01 vs I/R, FIG. 1B): significantly reduce
- infarct area of myocardial tissues in mice (TTC staining, AOI/AOR) ([1]; vs I/R, FIG. 1A): significantly reduce
- cell viability (MTS) of hypoxia/reoxygenation treated SH-SY5Y cells (SH-SY5Y nerve cells; FIG. 5A): significantly inhibit a decrease
- LDH release rate of hypoxia/reoxygenation treated SH-SY5Y cells (SH-SY5Y nerve cells; FIG. 5B): significantly inhibit

Reference: patent publication US20240335439A1, “USE OF AND METHOD FOR TELAPREVIR IN PREPARATION OF DRUG FOR TREATING AN ISCHEMIA/REPERFUSION INJURY AND CYTOPROTECTIVE DRUG” (THE THIRD XIANGYA HOSPITAL OF CENTRAL SOUTH UNIVERSITY, priority 2021, published 2024)
